Calls of active or inactive are those of the source.
What was measured:
[1] = target: G-protein coupled receptor 52 (Mus musculus) (UniProt P0C5J4); assay: In vivo antagonist activity at GPR52 in wild type mouse model assessed as reduction in soluble mHTT levels at 5 mg/kg, iv QD for 4 weeks by TR-FRET analysis; type: functional, organism-based
[2] = target: G-protein coupled receptor 52 (Mus musculus) (UniProt P0C5J4); assay: Antagonist activity at GPR52 in mouse STHdhQ7/111 cells assessed as decrease in wild type HTT levels at 1 to 10 uM incubated for 48 hrs in presence of 2B7-terbium and 2166-D2 antibodies by western blot analysis; type: cell-based; details: filed as antagonist, dose 1-10 µM
[3] = target: G-protein coupled receptor 52 (Mus musculus) (UniProt P0C5J4); assay: Antagonist activity at GPR52 in neurons from HdhQ7/Q140 mouse assessed as decrease in wild type HTT levels at 0.3 to 3 uM incubated for 48 hrs in presence of 2B7-terbium and 2166-D2 antibodies by western blot analysis; type: tissue-based; details: Neuron, filed as antagonist, dose 0.3-3 µM
[4] = tested on: STHdhQ7/111; assay: Decrease in wild type HTT level in GPR52 knockdown mouse STHdhQ7/111 cells with at 1 to 10 uM incubated for 48 hrs in presence of 2B7-terbium and 2166-D2 antibodies by TR-FRET analysis; type: functional, cell-based; details: dose 1-10 µM
[5] = target: C-C chemokine receptor type 5 (Homo sapiens) (UniProt P51681); assay: Antagonist activity at CCR5 (unknown origin) expressed in HEK293 cells assessed as inhibition of […] cAMP accumulation; type: functional, cell-based
C-C chemokine receptor type 5 (Homo sapiens), sequence (P51681 whole entry, looked up): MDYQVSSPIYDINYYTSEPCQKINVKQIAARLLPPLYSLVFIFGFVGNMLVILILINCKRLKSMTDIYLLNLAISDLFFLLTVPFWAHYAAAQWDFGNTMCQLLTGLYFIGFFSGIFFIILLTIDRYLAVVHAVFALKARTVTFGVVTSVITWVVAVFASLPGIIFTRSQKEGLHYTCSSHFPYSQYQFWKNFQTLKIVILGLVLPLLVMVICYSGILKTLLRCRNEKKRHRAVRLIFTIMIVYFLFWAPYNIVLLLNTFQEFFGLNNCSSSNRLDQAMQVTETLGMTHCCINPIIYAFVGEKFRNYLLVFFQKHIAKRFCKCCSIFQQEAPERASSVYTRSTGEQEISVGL

[6] = target: G-protein coupled receptor 52 (Mus musculus) (UniProt P0C5J4); assay: Antagonist activity at GPR52 in neurons from HdhQ7/Q140 mouse assessed as decrease in mHTT levels at 0.1 to 3 uM incubated for 48 hrs in presence of 2B7-terbium and 2166-D2 antibodies by TR-FRET analysis; type: tissue-based; details: Neuron, filed as antagonist, dose 0.1-3 µM
[7] = target: G-protein coupled receptor 52 (Mus musculus) (UniProt P0C5J4); assay: In vivo antagonist activity at GPR52 in wild type mouse model assessed as reduction in mHTT aggregate levels in cortex in presence of 4C9 antibody labelled with terbium at 5 mg/kg, iv QD for 4 weeks by TR-FRET analysis; type: functional, organism-based
[8] = target: Glucagon receptor (Homo sapiens) (UniProt P47871); assay: Antagonist activity at GCGR (unknown origin) expressed in HEK293 cells assessed as inhibition of glucagon-induced cAMP accumulation; type: functional, cell-based
Glucagon receptor (Homo sapiens), sequence (P47871 whole entry): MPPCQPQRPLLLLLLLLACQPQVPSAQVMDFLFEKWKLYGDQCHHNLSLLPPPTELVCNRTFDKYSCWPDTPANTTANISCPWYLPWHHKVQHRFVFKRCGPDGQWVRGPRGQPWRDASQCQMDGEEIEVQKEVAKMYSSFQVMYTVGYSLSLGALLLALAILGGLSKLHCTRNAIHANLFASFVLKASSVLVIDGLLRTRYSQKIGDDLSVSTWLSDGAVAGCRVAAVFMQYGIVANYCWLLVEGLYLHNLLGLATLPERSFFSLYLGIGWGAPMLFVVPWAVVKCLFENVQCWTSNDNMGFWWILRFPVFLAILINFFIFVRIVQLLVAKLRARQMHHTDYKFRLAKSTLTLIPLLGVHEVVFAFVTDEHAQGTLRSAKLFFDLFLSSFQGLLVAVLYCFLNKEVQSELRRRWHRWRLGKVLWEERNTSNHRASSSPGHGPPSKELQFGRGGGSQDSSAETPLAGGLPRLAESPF

[9] = Neurotoxicity in wild type mouse assessed as motor deficiency by measuring latency to fall at 5 mg/kg, iv QD for 4 weeks by rotarod test; type: toxicity, organism-based; details: in vivo, 672 h
[10] = target: T1, Alpha-1D adrenergic receptor (Homo sapiens) (UniProt P25100); assay: Antagonist activity at alpha1D adrenergic receptor (unknown origin) expressed in HEK293 cells assessed as inhibition of phenylephrine-induced cAMP accumulation; type: functional, cell-based
T1 sequence (whole entry): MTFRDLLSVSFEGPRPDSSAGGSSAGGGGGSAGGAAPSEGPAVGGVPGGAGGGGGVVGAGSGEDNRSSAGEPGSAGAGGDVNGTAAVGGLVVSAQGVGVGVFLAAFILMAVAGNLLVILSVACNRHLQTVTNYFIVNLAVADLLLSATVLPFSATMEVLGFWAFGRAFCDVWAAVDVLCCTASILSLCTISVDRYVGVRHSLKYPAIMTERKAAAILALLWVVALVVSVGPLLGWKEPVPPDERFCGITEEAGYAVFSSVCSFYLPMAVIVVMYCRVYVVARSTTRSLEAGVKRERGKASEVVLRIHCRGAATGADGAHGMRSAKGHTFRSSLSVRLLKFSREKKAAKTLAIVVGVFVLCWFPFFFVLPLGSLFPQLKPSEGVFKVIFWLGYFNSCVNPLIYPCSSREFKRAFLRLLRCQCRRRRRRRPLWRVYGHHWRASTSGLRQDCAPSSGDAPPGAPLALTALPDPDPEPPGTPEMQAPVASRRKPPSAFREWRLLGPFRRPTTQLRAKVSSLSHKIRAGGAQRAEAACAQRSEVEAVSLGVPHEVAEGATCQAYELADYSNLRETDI

[11] = target: G-protein coupled receptor 52 (Mus musculus) (UniProt P0C5J4); assay: In vivo antagonist activity at GPR52 in HdhQ140 knock-in mouse model assessed as reduction in mHTT levels in striatum at 0.5 mM, icv QD for 3 weeks by TR-FRET analysis; type: functional
[12] = tested on: STHdhQ7/111; assay: Decrease in mHTT level in GPR52 knockdown mouse STHdhQ7/111 cells with at 1 to 10 uM incubated for 48 hrs in presence of 2B7-terbium and 2166-D2 antibodies by TR-FRET analysis; type: functional, cell-based; details: dose 1-10 µM
[13] = tested on: Mus musculus; assay: Neuroprotective activity in HdhQ140 knock-in mouse model assessed as decrease in staining intensity of microglia in striatum at 5 mg/kg, iv QD for 4 weeks by Iba1 staining based immunostaining analysis; type: functional, organism-based
[14] = target: G-protein coupled receptor 52 (Mus musculus) (UniProt P0C5J4); assay: In vivo antagonist activity at GPR52 in wild type mouse model assessed as reduction in mHTT aggregate levels in cortex in presence of 4C9 antibody labelled with D2 fluorophore at 5 mg/kg, iv QD for 4 weeks by TR-FRET analysis; type: functional, organism-based
[15] = target: G-protein coupled receptor 52 (Mus musculus) (UniProt P0C5J4); assay: In vivo antagonist activity at GPR52 in HdhQ140 knock-in mouse model assessed as reduction in mHTT levels in cortex at 0.5 mM, icv QD for 3 weeks by TR-FRET analysis; type: functional
[16] = target: G-protein coupled receptor 52 (Mus musculus) (UniProt P0C5J4); assay: Antagonist activity at GPR52 in neurons from HdhQ7/Q140 mouse assessed as decrease in mHTT levels at 0.3 to 3 uM incubated for 48 hrs in presence of 2B7-terbium and 2166-D2 antibodies by western blot analysis; details: Neuron, filed as antagonist, dose 0.3-3 µM
[17] = target: G-protein coupled receptor 52 (Mus musculus) (UniProt P0C5J4); assay: In vivo antagonist activity at GPR52 in HdhQ140 knock-in mouse model assessed as reduction in mHTT aggregate levels in striatum in presence of 4C9 antibody labelled with terbium at 5 mg/kg, iv QD for 4 weeks by TR-FRET analysis; type: functional, organism-based
[18] = target: G-protein coupled receptor 52 (Mus musculus) (UniProt P0C5J4); assay: In vivo antagonist activity at GPR52 in HdhQ140 knock-in mouse model assessed as reduction in mHTT aggregate levels in cortex in presence of 4C9 antibody labelled with D2 fluorophore at 5 mg/kg, iv QD for 4 weeks by TR-FRET analysis; type: functional, organism-based
[19] = target: G-protein coupled receptor 52 (Homo sapiens, UniProt Q9Y2T5); assay: Antagonist activity at GPR52 (unknown origin) expressed in HEK293 cells assessed as inhibition of WO459-induced cAMP accumulation preincubated for 15 mins followed by WO459 addition and measured after 30 mins by LANCE Ultra cAMP kit based microplate reader analysis; type: functional, cell-based; details: read-out: IC50
G-protein coupled receptor 52, sequence (Q9Y2T5 whole entry): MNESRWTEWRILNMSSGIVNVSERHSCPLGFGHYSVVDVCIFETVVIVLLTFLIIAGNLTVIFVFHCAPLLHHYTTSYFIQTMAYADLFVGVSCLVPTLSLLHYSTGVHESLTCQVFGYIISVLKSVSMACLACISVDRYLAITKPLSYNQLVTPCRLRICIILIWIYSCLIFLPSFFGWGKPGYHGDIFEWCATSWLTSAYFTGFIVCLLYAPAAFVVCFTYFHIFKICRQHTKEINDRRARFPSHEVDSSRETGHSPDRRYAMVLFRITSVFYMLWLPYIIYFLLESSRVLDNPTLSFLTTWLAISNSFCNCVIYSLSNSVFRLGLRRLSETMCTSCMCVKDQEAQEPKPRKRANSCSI

[20] = target: G-protein coupled receptor 52 (Mus musculus) (UniProt P0C5J4); assay: In vivo antagonist activity at GPR52 in HdhQ140 knock-in mouse model assessed as reduction in mHTT aggregate levels in striatum in presence of 4C9 antibody labelled with D2 fluorophore at 5 mg/kg, iv QD for 4 weeks by TR-FRET analysis; type: functional, organism-based
[21] = tested on: Mus musculus; assay: Neuroprotective activity in HdhQ140 knock-in mouse model assessed as decrease in staining intensity of microglia in striatum at 0.5 mM, icv QD for 3 weeks by Iba1staining based immunostaining analysis; type: functional, organism-based

G-protein coupled receptor 52 (Mus musculus), sequence (P0C5J4 whole entry): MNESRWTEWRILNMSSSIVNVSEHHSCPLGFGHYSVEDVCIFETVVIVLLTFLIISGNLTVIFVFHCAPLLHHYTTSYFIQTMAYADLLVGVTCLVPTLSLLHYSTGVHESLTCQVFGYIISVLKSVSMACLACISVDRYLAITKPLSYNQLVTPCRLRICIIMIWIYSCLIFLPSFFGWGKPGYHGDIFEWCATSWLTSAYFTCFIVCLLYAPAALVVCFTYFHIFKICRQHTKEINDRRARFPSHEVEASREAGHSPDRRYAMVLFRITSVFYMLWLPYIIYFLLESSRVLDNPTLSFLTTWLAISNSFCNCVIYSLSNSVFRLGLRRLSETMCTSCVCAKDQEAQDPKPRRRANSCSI

O=C(/C=C/CCc1ccccc1)c1ccco1
inactive: Activity [1] | Activity [4] | Activity [5] | Activity [7] | Activity [8] | Activity [10] | Activity [12] | Activity [14] | Activity [15] | Activity [18]
0.63 µM: IC50 [19]
Non-Toxic: Activity [9]
active: Activity [2] | Activity [3] | Activity [6] | Activity [11] | Activity [13] | Activity [16] | Activity [17] | Activity [20] | Activity [21]

Source: ChEMBL document CHEMBL4706623, “GPR52 Antagonist Reduces Huntingtin Levels and Ameliorates Huntington's Disease-Related Phenotypes” (J Med Chem, 2021)
